Each compound was assayed on HCV Huh-luc/neo-ET replicon cells (assay: Luciferase-Based HCV Replicon Assay (EC50 (1b))). Conditions: Hepatitis C virus, 72 hours exposure, luciferase activity.
Type: cell-based
Method: Luciferase-Based HCV Replicon Assay Protocol (EC50 (1b))
The cell culture component of the assay was performed essentially as described by Bartenschlager et al., Hepatology 2002, 35, 694-703, wherein exponentially growing HCV Huh-luc/neo-ET replicon cells were seeded at 6×10^3 cells/well in 96 well assay plate. 24 hours later the cells were treated with various concentrations of compound in triplicate. After 72 hours exposure to the compound, the luciferase activity in the wells was determined using Bright-Glo reagent (Promega, Madison, Wis.) with a luminometer (Wallac 1420 Multilabel HTS Counter Victor 2). The background control was replicon cells treated with 100 nM BILN-2061, an inhibitor of the HCV protease. % Inhibition was determined for each compound concentration in relation to the negative (no compound) control to calculate the EC50 (1b).
`CS(=O)(=O)NCc1csc2c1S(=O)(=O)N=C(C1=C(O)[C@@H]3CCC[C@@H]3N(Cc3ccc(F)cc3F)C1=O)N2` [Example 112, (4aR,7aS)-N-{3-[1-(2,4-Difluoro-benzyl)-4-hydroxy-2-oxo-2,4a,5,6,7,7a-hexahydro-1H-[1]pyrindin-3-yl]-1,1-dioxo-1,4-dihydro-1λ^6-thieno[2,3-e][1,2,4]thiadiazin-7-ylmethyl}-methanesulfonamide] was tested, and the EC50 was 20 to 100 nM. `CS(=O)(=O)NCc1csc2c1S(=O)(=O)N=C(C1=C(O)[C@@H]3CCC[C@@H]3N(Cc3ccc(F)c(F)c3F)C1=O)N2` [Example 115, (4aR,7aS)-N-{3-[4-Hydroxy-2-oxo-1-(2,3,4-trifluoro-benzyl)-2,4a,5,6,7,7a-hexahydro-1H-[1]pyrindin-3-yl]-1,1-dioxo-1,4-dihydro-1λ^6-thieno[2,3-e][1,2,4]thiadiazin-7-ylmethyl}-methanesulfonamide] gave an EC50 of 100 to 1000 nM. `CS(=O)(=O)NCc1csc2c1S(=O)(=O)N=C(C1=C(O)C3CCCCCC3N(Cc3ccsc3)C1=O)N2` (racemic) [Example 141, (rac-cis)-N-[3-(4-Hydroxy-2-oxo-1-thiophen-3-ylmethyl-2,4a,5,6,7,8,9,9a-octahydro-1H-cyclohepta[b]pyridin-3-yl)-1,1-dioxo-1,4-dihydro-1λ^6-thieno[2,3-e][1,2,4]thiadiazin-7-ylmethyl]-methanesulfonamide] showed an EC50 greater than 1000 nM. With `CS(=O)(=O)NCc1csc2c1S(=O)(=O)N=C(C1=C(O)[C@@H]3CCC[C@@H]3N(Cc3ccc(F)cc3Cl)C1=O)N2` [Example 111, (4aR,7aS)-N-{3-[1-(2-Chloro-4-fluoro-benzyl)-4-hydroxy-2-oxo-2,4a,5,6,7,7a-hexahydro-1H-[1]pyrindin-3-yl]-1,1-dioxo-1,4-dihydro-1λ^6-thieno[2,3-e][1,2,4]thiadiazin-7-ylmethyl}-methanesulfonamide] the EC50 was 100 to 1000 nM. For `CC(C)(C)CCN1C(=O)C(C2=NS(=O)(=O)c3c(CNS(C)(=O)=O)csc3N2)=C(O)[C@@H]2C3CCC(CC3)[C@@H]21` [Example 93, N-{3-[(2S,7R)-3-(3,3-Dimethyl-butyl)-6-hydroxy-4-oxo-3-aza-tricyclo[6.2.2.0^2,7]dodec-5-en-5-yl]-1,1-dioxo-1,4-dihydro-1λ^6-thieno[2,3-e][1,2,4]thiadiazin-7-ylmethyl}-methanesulfonamide], the EC50 was no more than 5 nM. `CS(=O)(=O)NCc1csc2c1S(=O)(=O)N=C(C1=C(O)C3CCCCC3N(Cc3ccc(F)cc3)C1=O)N2` (racemic) [Example 116, (rac-cis)-N-{3-[1-(4-Fluoro-benzyl)-4-hydroxy-2-oxo-1,2,4a,5,6,7,8,8a-octahydro-quinolin-3-yl]-1,1-dioxo-1,4-dihydro-1λ^6-thieno[2,3-e][1,2,4]thiadiazin-7-ylmethyl}-methanesulfonamide] showed an EC50 of 20 to 100 nM. Work on `CS(=O)(=O)NCc1csc2c1S(=O)(=O)N=C(C1=C(O)[C@@H]3[C@H]4CC[C@H](C4)[C@@H]3N(CCC3CCCC3)C1=O)N2` [Example 30, N-{3-[(1R,2S,7R,8S)-3-(2-Cyclopentyl-ethyl)-6-hydroxy-4-oxo-3-aza-tricyclo[6.2.1.0^2,7]undec-5-en-5-yl]-1,1-dioxo-1,4-dihydro-1λ^6-thieno[2,3-e][1,2,4]thiadiazin-7-ylmethyl}-methanesulfonamide] yielded an EC50 of 20 to 100 nM. For `CS(=O)(=O)NCc1csc2c1S(=O)(=O)N=C(C1=C(O)[C@@H]3[C@H]4CC[C@H](C4)[C@@H]3N(Cc3ccc(F)cc3)C1=O)N2` [Example 1, (1R,2S,7R,8S)—N-{3-[3-(4-Fluoro-benzyl)-6-hydroxy-4-oxo-3-aza-tricyclo[6.2.1.0^2,7]undec-5-en-5-yl]-1,1-dioxo-1,4-dihydro-1λ^6-thieno[2,3-e][1,2,4]thiadiazin-7-ylmethyl}-methanesulfonamide], the EC50 was no more than 5 nM. `CS(=O)(=O)NCc1csc2c1S(=O)(=O)N=C(C1=C(O)[C@@H]3CCC[C@@H]3N(Cc3ccccc3)C1=O)N2` [Example 124, (4aR,7aS)-N-[3-(1-Benzyl-4-hydroxy-2-oxo-2,4a,5,6,7,7a-hexahydro-1H-[1]pyrindin-3-yl)-1,1-dioxo-1,4-dihydro-1λ^6-thieno[2,3-e][1,2,4]thiadiazin-7-ylmethyl]-methanesulfonamide] gave an EC50 of 5 to 20 nM. Work on `CC(C)CCC1(C)CN(C2CC2)C(=O)C(C2=NS(=O)(=O)c3c(CNS(C)(=O)=O)csc3N2)=C1O` (racemic) [Example 19, rac-N-{3-[1-Cyclopropyl-4-hydroxy-5-methyl-5-(3-methyl-butyl)-2-oxo-1,2,5,6-tetrahydro-pyridin-3-yl]-1,1-dioxo-1,4-dihydro-1λ^6-thieno[2,3-e][1,2,4]thiadiazin-7-ylmethyl}-methanesulfonamide] yielded an EC50 of 100 to 1000 nM. With `CS(=O)(=O)NCc1csc2c1S(=O)(=O)N=C(C1=C(O)C3CCCCC3N(Cc3ccc(F)cc3Cl)C1=O)N2` (racemic) [Example 117, (rac-cis)-N-{3-[1-(2-Chloro-4-fluoro-benzyl)-4-hydroxy-2-oxo-1,2,4a,5,6,7,8,8a-octahydro-quinolin-3-yl]-1,1-dioxo-1,4-dihydro-1λ^6-thieno[2,3-e][1,2,4]thiadiazin-7-ylmethyl}-methanesulfonamide] the EC50 was 100 to 1000 nM. In the case of `CS(=O)(=O)NCc1csc2c1S(=O)(=O)N=C(C1=C(O)C3CCCC3N(NC3CCC3)C1=O)N2` (racemic) [Example 27, (rac-cis)-N-[3-(1-cyclobutylamino-4-hydroxy-2-oxo-2,4a,5,6,7,7a-hexahydro-1H-[1]pyrindin-3-yl)-1,1-dioxo-1,4-dihydro-1λ^6-thieno[2,3-e][1,2,4]thiadiazin-7-ylmethyl]-methanesulfonamide], the EC50 is reported as greater than 1000 nM. In the case of `CC1(CCN2C(=O)C(C3=NS(=O)(=O)c4c(CNS(C)(=O)=O)csc4N3)=C(O)C3C4CCC(CC4)C32)CC1` (stereo not shown) [Example 109, N-(3-{6-Hydroxy-3-[2-(1-methyl-cyclopropyl)-ethyl]-4-oxo-3-aza-tricyclo[6.2.2.0^2,7]dodec-5-en-5-yl]-1,1-dioxo-1,4-dihydro-1λ^6-thieno[2,3-e][1,2,4]thiadiazin-7-ylmethyl)-methanesulfonamide], the EC50 is reported as 5 to 20 nM. Work on `CCC1CN(Cc2ccc(F)cc2)C(=O)C(C2=NS(=O)(=O)c3c(CNS(C)(=O)=O)csc3N2)=C1O` (racemic) [Example 18, rac-N-{3-[5-Ethyl-1-(4-fluoro-benzyl)-4-hydroxy-2-oxo-1,2,5,6-tetrahydro-pyridin-3-yl]-1,1-dioxo-1,4-dihydro-1λ^6-thieno[2,3-e][1,2,4]thiadiazin-7-ylmethyl}-methanesulfonamide] yielded an EC50 of 100 to 1000 nM. Work on `CC(C)CC1CC(O)=C(C2=NS(=O)(=O)c3c(CNS(C)(=O)=O)csc3N2)C(=O)N1Cc1ccc(F)cc1` (racemic) [Example 7, rac-N-{3-[1-(4-Fluoro-benzyl)-4-hydroxy-6-isobutyl-2-oxo-1,2,5,6-tetrahydro-pyridin-3-yl]-1,1-dioxo-1,4-dihydro-1λ^6-thieno[2,3-e][1,2,4]thiadiazin-7-ylmethyl}-methanesulfonamide] yielded an EC50 of 100 to 1000 nM. Compound `CS(=O)(=O)NCc1csc2c1S(=O)(=O)N=C(C1=C(O)C3C4CCC(CC4)C3N(CCC3CC3)C1=O)N2` (stereo not shown) [Example 108, N-{3-[3-(2-Cyclopropyl-ethyl)-6-hydroxy-4-oxo-3-aza-tricyclo[6.2.2.0^2,7]dodec-5-en-5-yl]-1,1-dioxo-1,4-dihydro-1λ^6-thieno[2,3-e][1,2,4]thiadiazin-7-ylmethyl}-methanesulfonamide] has an EC50 of 5 to 20 nM.
